In one assay the target is T1, hOCT2 (Homo sapiens, UniProt O15244).
T1 construct: host or cells: S2-OCT2
T1 sequence (O15244 1-555): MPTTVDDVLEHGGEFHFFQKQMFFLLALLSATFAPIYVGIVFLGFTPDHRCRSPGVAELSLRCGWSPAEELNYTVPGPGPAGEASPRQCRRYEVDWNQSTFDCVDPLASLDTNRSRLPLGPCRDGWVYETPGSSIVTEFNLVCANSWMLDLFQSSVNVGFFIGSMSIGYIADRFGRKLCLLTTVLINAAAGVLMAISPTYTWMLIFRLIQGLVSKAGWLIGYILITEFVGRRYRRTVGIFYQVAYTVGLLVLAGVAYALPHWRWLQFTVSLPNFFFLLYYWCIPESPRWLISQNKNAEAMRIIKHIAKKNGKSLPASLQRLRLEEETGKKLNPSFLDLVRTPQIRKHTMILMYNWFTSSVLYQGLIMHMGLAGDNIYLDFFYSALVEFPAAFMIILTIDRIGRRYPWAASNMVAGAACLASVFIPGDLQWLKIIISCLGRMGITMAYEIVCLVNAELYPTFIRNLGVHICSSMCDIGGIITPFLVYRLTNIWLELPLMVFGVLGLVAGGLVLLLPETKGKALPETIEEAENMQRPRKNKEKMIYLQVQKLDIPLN
In words: Substrates uptake assay, S2-OCT2 cells (14C-TEA). The class given is in vitro ADME. To be noted: 14C-TEA 5 µM, 5 min.

The target in the next assay is T2, hOAT3 (Homo sapiens, UniProt Q8TCC7).
T2 sequence (Q8TCC7 1-542): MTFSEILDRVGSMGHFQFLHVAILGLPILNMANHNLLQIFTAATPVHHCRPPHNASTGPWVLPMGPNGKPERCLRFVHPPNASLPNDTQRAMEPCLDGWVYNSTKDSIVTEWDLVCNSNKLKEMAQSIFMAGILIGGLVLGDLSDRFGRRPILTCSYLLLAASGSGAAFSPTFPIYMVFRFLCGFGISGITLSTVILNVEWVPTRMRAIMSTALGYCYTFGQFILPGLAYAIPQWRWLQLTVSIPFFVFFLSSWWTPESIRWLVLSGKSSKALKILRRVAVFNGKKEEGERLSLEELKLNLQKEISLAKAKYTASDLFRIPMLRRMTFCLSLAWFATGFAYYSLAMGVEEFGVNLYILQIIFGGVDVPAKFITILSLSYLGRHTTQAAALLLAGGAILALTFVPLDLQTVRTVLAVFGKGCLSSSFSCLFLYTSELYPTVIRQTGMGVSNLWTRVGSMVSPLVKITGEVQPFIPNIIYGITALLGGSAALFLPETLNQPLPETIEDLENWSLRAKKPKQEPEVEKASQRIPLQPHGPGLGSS
In words: Substrates uptake assay, S2-OAT3 cells (3H-ES). To be noted: for Transport activity of OAT3 (main text: percentage inhibition): negative control = 100%. The class given is in vitro ADME. From the text: Drug transporters mediate the cellular uptake and efflux of their substrates. Therefore, cell lines overexpressing a drug transporter can be utilized to investigate inhibitors of the transporter by assessing changes in substrate uptake. For each drug transporter, we selected a well-characterized inhibitor as the positive control. Radiolabeled substrates were used to indicate the decrease in transport efficiency when the drug transporters were inhibited by PDQ or the control inhibitors.
The concentrations of the control drugs and the substrates were stated in the assay details. Working solutions of the control inhibitors, the radiolabeled substrates, and each dose of PDQ were prepared at 200 times (200×) more concentrated solutions with DMSO for further dilution.
Transporter-overexpressed cell lines. Human organic anion transporter-overexpressed cell lines MDCKII-OAT1 and S2-OAT3, human organic anion transport polypeptide-overexpressed cell lines HEK293A-OATP1B1 and HEK293A-OATP1B3, human organic cation transporter 2-overexpressed cell line S2-OCT2, and human multi-drug resistance protein MDR1 (or P-gp)-overexpressed cell line MDCKII-MDR1 were gifts from Japan Fuji Biomedical Co., Ltd. (Fuji, Shizuoka Prefecture, Japan). Breast cancer resistance protein-overexpressed vesicles (sf9-BCRP vesicle) were purchased from GenoMembrane Co., Ltd. (Yokohama, Kanagawa, Japan).
Substrates uptake assay. In this assay, we studied the inhibition of PDQ against transporters OAT1, OAT3, OCT2, OATP1B1 and OATP1B3 with MDCKII-OAT1, S2-OAT3, S2-OCT2, HEK293A-OATP1B1and HEK293A-OATP1B3 cells, respectively. The radiolabeled substrates for OAT1, OAT3, OATP1B1, OATP1B3 and OCT2 were […], respectively (Table 5). Probenecid ([…]) was the positive control inhibitor of OAT1 and OAT3, while rifampicin ([…]) served as the control drug of OATP1B1 and OATP1B3. For OCT2, we used […] cimetidine to compare with the inhibitory effect of PDQ. Two times (2×) more concentrated working solutions of the drugs and the substrate were prepared with Dulbecco’s phosphate-buffered saline (DPBS, Gibco, Grand Island, NY, USA.). Then, an equal volume of 2× drug solution and 2× radiolabeled substrate solution were mixed as the working mix. All reagents were pre-warmed to 37 °C.
The cells were digested with 0.05% trypsin/EDTA. The density of the single-cell suspension was adjusted to 2.0 × 10^5 cells/mL for S2 cells and to 1.5 × 10^5 cells/mL for MDCK II and HEK293A cells. The cell suspension was then added to the reservoirs of the 24-well plate for culture until full confluency. The medium in the wells was removed, and the wells were washed with DPBS. Then, the plate was incubated for 10 min with pre-warmed DPBS in the wells. After removing DPBS, […] of working mix was added to each well to initiate the substrate uptake process. The reaction time was 5 min for S2-OCT2 cells, while the other four types of cells were incubated with the reaction mix for 2 min. Cold DPBS was used to terminate the substrate transportation. To each well, […] NaOH ([…]) was added to lyse the cells. Then, […] cell lysate was transferred to the counting vials, and 3 mL scintillation cocktail (Aquasol-2, PerkinElmer, Waltham, MA, USA) was added. […] Each sample was replicated three times (N = 3).
In = [100 × (U − U0)/(Uc − U0)]%(3)
The results were expressed as mean ± standard deviation (SD) and analyzed with GraphPad Prism 8.0 software (CA, USA). The IC50 of PDQ was curve-fitted with the FORECAST function. Statistical significance was calculated using a two-tailed test, and a p value < 0.05 was considered as significant.

Each structure is given as a SMILES string.

For the compound `CC(C)(O)[C@@H]1CC[C@@](C)([C@H]2CC[C@]3(C)[C@@H]2[C@H](O)C[C@@H]2[C@@]4(C)CC[C@H](O)C(C)(C)[C@@H]4CC[C@]23C)O1` [PDQ, (20S,24S)-dammar-20,24-epoxy-3β, 12β, 25-triol], the IC50 against hOCT2 is above 30 µM. The “DPM (3H-ES uptake by OAT3)” value at hOAT3 (inhibitor 0.1 μM) is on record as 7893.7±359.2 DPM; on hOAT3 (inhibitor 0.3 μM) it was 7623.7±652.1 DPM; on hOAT3 (inhibitor 1 μM), 7285.3±273.2 DPM; at hOAT3 (inhibitor 3 μM), 7192.7±157.6 DPM; at hOAT3 (inhibitor 10 μM) it was 4919.0±360.3 DPM; on hOAT3 (inhibitor 30 μM), 4541.3±532.8 DPM. Besides, the “Transport activity of OAT3 (main text: percentage inhibition)” value is given as 99.5±4.5% on hOAT3 (inhibitor 0.1 μM); 96.1±8.2% on hOAT3 (inhibitor 0.3 μM); 91.8±3.4% on hOAT3 (inhibitor 1 μM); 90.6±2.0% at hOAT3 (inhibitor 3 μM); 62.0±4.5% at hOAT3 (inhibitor 10 μM).

As usually defined, the IC50 is the concentration needed to halve the response being measured. A higher IC50 goes with weaker potency in that assay.

The values above are taken from paper PMC11173382, “In Vitro Investigations into the Potential Drug Interactions of Pseudoginsenoside DQ Mediated by Cytochrome P450 and Human Drug Transporters” (Molecules, 2024).
